Experimental data from patent publication US7759345B2, “Antitumoral derivatives of ET-743” (priority 2001, dated 2010).
pIC50: −log10 of the molar value. Read-outs that look alike come from different tables or passages of the source.

How the values were obtained:
[1] = system: A-549; assay: Inhibition of cell growth by counting cells, A-549; assay type: cell-based, human; conditions: Homo sapiens, A549, 72 h; three days of incubation; read-out: IC50 (molar) A-549
In short: (§1)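 Human tumor cells were seeded at 1×10^4 cells per well in EMEM with 5% FCS containing graded compound concentrations, in duplicate, and incubated three days at 37° C, 5% CO2. Cells were then trypsinized and counted electronically; IC50 came from dose-response curves of percent growth versus drug-free controls.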

[2] = system: Heart
Text: (§3) Toxicity was asssessed by the methods reported in Toxicology in Vitro, 15 (2001) 571-577, J. Luber Narod et al.: “Evaluation of the use of in vitro methodolodies as tools for screening new compounds for potential in vivo toxicity”.

[3] = system: HT-29; assay: Inhibition of cell growth by counting cells, HT-29; assay type: cell-based, human; conditions: Homo sapiens, HT-29, 72 h; three days of incubation; read-out: IC50 (molar) HT-29
In short: as §1

[4] = system: Skeletal
Text: as §3

[5] = system: Liver
Text: as §3

[6] = system: Myelo
Text: as §3

[7] = system: Kidney
Text: as §3

[8] = system: HT-29; assay: Inhibition of cells growth by colorimetric assay (SRB), HT-29; assay type: cell-based; conditions: SRB, 48 hours exposure; for HT-29 TGI / GI50: HT-29; for GI50: read-out: HT-29 GI50
In short: (§2)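 Human cancer and endothelial lines are seeded at 5×10^3 cells per well and, after 18 h, treated for 48 h with compound dissolved in DMSO/EtOH/PBS (0.5:0.5:99) at 10 to 10^−8 μg/ml. Cell mass is quantified by SRB staining (OD 490 nm), and growth inhibition, total growth inhibition and cell kill are calculated from triplicate wells.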

[9] = system: A-549; assay: Inhibition of cells growth by colorimetric assay (SRB), A-549; assay type: cell-based; conditions: SRB, 48 hours exposure
In short: as §2

[10] = system: HMEC1; assay: Inhibition of cells growth by colorimetric assay (SRB), HMEC1; assay type: cell-based; conditions: HMEC-1, SRB, 48 hours exposure
In short: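 SRB read-out at 490 nm after 48 h drug exposure (10 to 10^−8 μg/ml) of cells plated at 5×10^3/well and attached 18 h in drug-free RPMI 1640/10% FBS. Triplicate means give GI, TGI (cytostatic) and LC (cytotoxic).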

[11] = system: SK-BR-3; assay: Inhibition of cells growth by colorimetric assay (SRB), SK-BR-3; assay type: cell-based; conditions: SK-BR3, SRB, 48 hours exposure
In short: as §2

[12] = system: K-562; assay: Inhibition of cells growth by colorimetric assay (SRB), K-562; assay type: cell-based; conditions: K-562, SRB, 48 hours exposure
In short: as §2

[13] = system: LNCaP; assay: Inhibition of cells growth by colorimetric assay (SRB), LNCaP; assay type: cell-based; conditions: LNCAP, SRB, 48 hours exposure
In short: as §2

[14] = system: SK-MEL-28; assay: Inhibition of cells growth by colorimetric assay (SRB), SK-MEL-28; assay type: cell-based; conditions: MEL-28, SRB, 48 hours exposure
In short: as §2

[15] = system: LoVo; assay: Inhibition of cells growth by colorimetric assay (SRB), LoVo; assay type: cell-based; conditions: LOVO, SRB, 48 hours exposure
In short: as §2

[16] = system: IGROV-1; assay: Inhibition of cells growth by colorimetric assay (SRB), IGROV-1; assay type: cell-based; conditions: IGROV, SRB, 48 hours exposure
In short: as §2

[17] = system: DU-145; assay: Inhibition of cells growth by colorimetric assay (SRB), DU-145; assay type: cell-based; conditions: DU-145, SRB, 48 hours exposure
In short: as §2

[18] = system: PANC-1; assay: Inhibition of cells growth by colorimetric assay (SRB), PANC-1; assay type: cell-based; conditions: PANC-1, SRB, 48 hours exposure
In short: as §2

[19] = system: IGROV-ET; assay: Inhibition of cells growth by colorimetric assay (SRB), IGROV-ET; assay type: cell-based; conditions: IGROV-ET, SRB, 48 hours exposure
In short: as §2

[20] = system: LoVo-Dox; assay: Inhibition of cells growth by colorimetric assay (SRB), LoVo-Dox; assay type: cell-based; conditions: LOVO-DOX, SRB, 48 hours exposure
In short: as §2

[21] = system: SK-OV-3; assay: Inhibition of cells growth by colorimetric assay (SRB), SK-OV-3; assay type: cell-based; conditions: SK-OV3, SRB, 48 hours exposure
In short: as §2

## C=CCOc1c(C)c2c(c3c1[C@H]1SC[C@]4(NCCc5cc(O)c(OC)cc54)C(=O)OC[C@@H]3N3C1[C@H]1c4c(cc(C)c(OC)c4O)C[C@@H]([C@@H]3O)N1C)OCO2 (some centres unmarked) [Compound 183]
[1]
  pIC50: 9.88
[2]
  Toxicity Data Heart: 3.72E-08
[3]
  pIC50: 9.88
[4]
  Toxicity Data Skeletal: 2.67E-08
[5]
  Toxicity Data Liver: 3.03E-08
[6]
  Toxicity Data Myelo: 2.39E-08
[7]
  Toxicity Data Kidney: 6.72E-03

## C=CCOC(=O)Oc1c(C)c2c(c3c1[C@H]1SC[C@]4(NCCc5cc(O)c(OC)cc54)C(=O)OC[C@@H]3N3C1[C@H]1c4c(cc(C)c(OC)c4O)C[C@@H]([C@@H]3O)N1C)OCO2 (some centres unmarked) [Compound 165]
[2]
  Toxicity Data Heart: 2.79E-08
[8]
  HT-29 TGI: 3.73E-10
[8]; Homo sapiens, HT-29, 48 h
  GI50: 0.249 nM
[8]; Homo sapiens, HT-29, 48 h, read-out: HT-29 LC50, HT-29
  LC50 (concentration for 50% cell killing): 0.995 nM
[4]
  Toxicity Data Skeletal: 1.47E-08
[9]; A-549
  A-549 TGI: 3.73E-10
[9]; Homo sapiens, A549, 48 h, A-549, read-out: A-549 GI50
  GI50: 0.124 nM
[9]; Homo sapiens, A549, 48 h, read-out: A-549 LC50, A-549
  LC50 (concentration for 50% cell killing): 1.24 nM
[5]
  Toxicity Data Liver: 1.68E-08
[6]
  Toxicity Data Myelo: 2.87E-08
[7]
  Toxicity Data Kidney: 1.89E-08

## CCOc1cc2c(cc1OC)[C@@]1(CS[C@@H]3c4c(OC(C)=O)c(C)c5c(c4[C@H](COC1=O)N1C3[C@H]3c4c(cc(C)c(OC)c4O)C[C@@H]([C@@H]1O)N3C)OCO5)NCC2 (some centres unmarked) [Compound 68]
[1]
  pIC50: 9.20
[2]
  Toxicity Data Heart: 1.13E-08
[3]
  pIC50: 9.20
[4]
  Toxicity Data Skeletal: 1.27E-08
[5]
  Toxicity Data Liver: 1.76E-08
[6]
  Toxicity Data Myelo: 1.89E-08
[7]
  Toxicity Data Kidney: 5.10E-09

## COc1cc2c(cc1OC(=O)Cc1cc(=O)oc3cc(N(C)C)ccc13)CCN[C@]21CS[C@@H]2c3c(OC(C)=O)c(C)c4c(c3[C@H](COC1=O)N1C2[C@H]2c3c(cc(C)c(OC)c3OC(=O)Cc3cc(=O)oc5cc(N(C)C)ccc35)C[C@@H]([C@@H]1O)N2C)OCO4 (some centres unmarked) [Compound 78]
[10]
  HMEC-1 TGI: 2.35E-07
[10]; read-out: HMEC-1 GI50
  GI50: 28.3 nM
[11]
  SK-BR3 TGI: 1.70E-08
[11]; read-out: SK-BR3 GI50
  GI50: 4.31 nM
[11]; read-out: SK-BR3 LC50
  CC50: 63.3 nM
[12]
  K-562 TGI: 2.56E-09
[12]; read-out: K-562 GI50
  GI50: 1.24 nM
[12]; read-out: K-562 LC50
  LC50 (50% cell killing): 7.5 nM
[2]
  Toxicity Data Heart: 8.19E-07
[13]
  LNCAP TGI: 4.05E-09
[13]; read-out: LNCAP GI50
  GI50: 2.74 nM
[13]; read-out: LNCAP LC50
  CC50: 5.99 nM
[8]
  HT-29 TGI: 1.10E-07
  GI50: 17.1 nM
[4]
  Toxicity Data Skeletal: 1.96E-08
[14]
  MEL-28 TGI: 4.48E-09
[14]; read-out: MEL-28 GI50
  GI50: 2.15 nM
[14]; read-out: MEL-28 LC50
  CC50: 16.9 nM
[15]
  LOVO TGI: 2.83E-08
[15]; read-out: LOVO GI50
  GI50: 10.7 nM
[15]; read-out: LOVO LC50
  LC50 (concentration for 50% cell killing): 74.3 nM
[16]
  IGROV TGI: 6.27E-09
[16]; read-out: IGROV GI50
  GI50: 2.38 nM
[16]; read-out: IGROV LC50
  CC50: 53.9 nM
[17]
  DU-145 TGI: 8.52E-09
[17]; read-out: DU-145 GI50
  GI50: 3.21 nM
[9]; A-549
  TGI A-549: 1.99E-08
[9]; A-549, read-out: GI50 A-549
  GI50: 9.59 nM
[9]; read-out: A-549 LC50, A-549
  LC50 (concentration for 50% cell killing): 41.1 nM
[18]
  PANC-1 TGI: 3.24E-08
[18]; read-out: PANC-1 GI50
  GI50: 5.42 nM
[18]; read-out: PANC-1 LC50
  LC50 (concentration for 50% net cell kill): 4.9 µM
[5]
  Toxicity Data Liver: 5.88E-08
[19]
  IGROV-ET TGI: 7.42E-07
[19]; read-out: IGROV-ET GI50
  GI50: 114 nM
[20]
  LOVO-DOX TGI: 8.77E-07
[20]; read-out: LOVO-DOX GI50
  GI50: 88.5 nM
[21]
  SK-OV3 TGI: 6.27E-08
[21]; read-out: SK-OV3 GI50
  GI50: 3.79 nM
[7]
  Toxicity Data Kidney: 2.59E-07
